Source: US6287813A, “Antibiotic-based gene regulation system” (Cistronics Cell Technology GmbH, priority 1999, dated 2001)

Target: T1, Pip/PPIR ON (Streptomyces coelicolor, UniProt Q9ADN3)
T1 sequence (Q9ADN3 1-252): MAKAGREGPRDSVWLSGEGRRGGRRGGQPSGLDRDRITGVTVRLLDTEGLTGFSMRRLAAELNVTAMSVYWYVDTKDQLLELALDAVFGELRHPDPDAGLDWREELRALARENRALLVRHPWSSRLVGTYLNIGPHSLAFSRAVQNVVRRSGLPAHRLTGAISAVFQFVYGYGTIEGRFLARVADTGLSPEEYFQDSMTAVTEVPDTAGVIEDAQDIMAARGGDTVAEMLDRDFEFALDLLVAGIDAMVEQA
Format: cell-based
Source text: The Classical PIT/PPIR system belongs to the "OFF" family of regulation concepts since gene expression is activated upon withdrawal of the regulating antibiotic. However, in some applications such as gene therapy and tissue engineering an "ON" system which is induced upon addition of streptogramin antibiotics is more desirable. We therefore constructed a new Pip-based binary PION system which consists of a PPIR ON promoter and a set of two different transrepressors. PPIR ON consists of a PIR3 module containing 3 consecutive Pip binding elements (SEQ ID NO:21; Example 3) placed in front of the strong viral SV40 promoter. Transrepressors such as PIT3, which consists of a protein fusion between Pip and the KRAB silencing domain of the human kox-1 gene (Deuschle et al., 1995, Mol. Cell Biol. 15: 1907-1914) and PIT4, which is simply Pip expressed in a eukaryotic configuration, bind to PIR3 in front of PSV40 and block transcription of this promoter. Besides sterical transcription blocking the silencing domain of PIT3 can additionally downregulate PSV40 activity. […]
Table 9: Comparison of the regulation characteristics of the PipON systems. CHO-K1 cells were simultaneously cotransfected with the plasmids indicated and the SEAP readout (slope a of the p-nitrophenolphosphate-based light absorbance time courses) was determined in the presence and absence of pristinamycin 48 hr post transfection. […]
In order to assess the regulation potential of different streptogramin antibiotics, pMF225 or pMF150 encoding PIT4 were cotransfected with pMF208 (PPIR ON-SEAP) into CHO-K1 cells and the SEAP induction was measured 48 following transfection (as described above in Example 1) and addition of the following streptogramin antibiotics: (i) PI, the group B streptogramin component of pristinamycin; (ii) Pyostacin, the human oral antibiotic; (iii) Synercid, the first injectable semi-synthetic pristinamycin derivative effective against most multidrug resistant human pathogenic bacteria and (iv) virginiamycin used as growth promotant in livestock feed. […]

pristinamycin I [PI]
SEAP readout (slope of the p-nitrophenolphosphate-based light absorbance time courses) (+PI (2 μg/ml) column, CHO + pMF208 + pMF225, 48 hr post transfection): 0.019 ± 0.002
SEAP Production (slope of the p-nitrophenolphosphate-based light absorbance time courses) (CHO-K1 + pMF225 + pMF208, 2 μg/ml group B component, 48 hr post transfection): 0.65 ± 0.03
Induction factor (PIT4-PPIR ON configuration (pMF225-pMF208)): 25
